The record followed here is patent US7786093B2, “Antistress agent” (Health Wellness Foods Corporation, priority 2004, dated 2010).

Test [1] has as its system human mononuclear cells. Description: IFN-γ production by ConA- or PHA-stimulated mononuclear cells with DEX (ELISA). The format is cell-based. The conditions noted are these: DEX 10 nM, 24 h. As for the experimental part:
(a) In a manner similar to that in Example 1, mononuclear cells were prepared from blood of an adult, and the cultivation was initiated at a concentration of 5.0×10^5 mononuclear cells/mL. In a manner similar to that in Example 1, ConA or PHA as a cell stimulatory factor was added to the culture in 50 μL per one well so as to make a final concentration of 2.0 μg/mL or 5.0 μg/mL, respectively, thereby inducing cytokine production. […] After completion of the incubation, the amount of IFN-γ in the culture supernatant was measured by the ELISA.
The determination by the ELISA is shown in the following.
(§1) A 2 μg/mL solution of a mouse anti-human IFN-γ antibody (manufactured by Endogen Inc.) prepared in a borate buffer solution was added in 50 μL per one well on a 96-well ELISA plate, and the plate was allowed to stand at 4° C. for a day to adhere the mouse anti-human IFN-γ antibody to each well. The above-mentioned culture supernatant was added in 50 μL per one well on the ELISA plate adhering the mouse anti-human IFN-γ antibody, and the plate was allowed to stand at room temperature for 90 minutes, thereby binding the IFN-γ in the culture supernatant to the mouse anti-human IFN-γ antibody adhered on the plate. After washing the plate, a 0.5 μg/mL solution of a biotin-labeled mouse anti-human IFN-γ antibody (manufactured by Endogen Inc.) prepared in a borate buffer solution was added thereto in 100 μL per one well to bind to the IFN-γ bound with the mouse anti-human IFN-γ antibody adhered on the plate. After washing out an unbound biotin-labeled mouse anti-human IFN-γ antibody, a solution of Avidin-HRP (manufactured by BD PharMingen Inc.) diluted 1000-fold in a borate buffer solution was added thereto in 100 μL per one well to bind to the biotin-labeled mouse anti-human IFN-γ antibody bound with the IFN-γ. After washing out an excess of Avidin-HRP, a phosphate buffer solution containing 0.006 V/V % of hydrogen peroxide and 0.1 W/V % of orthophenylenediamine was added thereto in 100 μL per one well to allow to react at room temperature for 15 minutes, and then the reaction was stopped by addition of 1.5 N sulfuric acid. The absorbance at a measurement wavelength of 492 nm and a reference wavelength of 630 nm was measured, and the concentration of the IFN-γ in the culture supernatant was obtained from a calibration curve prepared with a recombinant IFN-γ.
(ELISA stands for enzyme-linked immunosorbent assay.)

In test [2] the test system is spleen cells of BALB/c mice. Description: Final test: cytokine production of spleen cells from DEX-administered mice given nigerooligosaccharide in drinking water (ELISA). The conditions noted are these: DEX 60 μg/mouse i.p., ion-exchanged water as drinking water. Format: in vivo. As for the experimental part:
The prepared spleen cells were suspended in an RPMI 1640 culture medium so as to make a concentration of 5.0×10^6 cells/mL. This suspension was inoculated in 100 μL per one well on a 96-well tissue culture plate, and further a solution of a cell stimulatory factor, (1) PHA or (2) LPS, dissolved in the RPMI 1640 culture medium so as to make a final concentration of 12.5 μg/mL or 20 μg/mL, respectively, was added in 100 μL per one well. The spleen cells were cultivated at 37° C. for 24 hours in a 5% CO2 incubator, and the concentrations of cytokines in the culture supernatant, IL-4 and IFN-γ for the foregoing (1) or IL-10 and TNF-α for the foregoing (2), were measured by the ELISA. The amount of IFN-γ was measured on the basis of the ELISA described in Example 2. The amounts of IL-4, IL-10 and TNF-α were measured in a manner similar to the ELISA described in Example 2, except that the IFN-γ in the ELISA described in Example 2 was replaced by IL-4, IL-10 or TNF-α.
Next, in this test, to 14 weeks old, female BALB/c mice (6 mice per one group) was given as a drinking water ion-exchanged water or a 1 W/V % solution of a highly pure nigerooligosaccharide (19.8% by weight of nigerose, 36.5% by weight of a trisaccharide fraction mainly composed of nigerosylglucose, 40.2% by weight of a tetra- or more saccharide fraction mainly composed of nigerosylmaltose, and 3.5% by weight of glucose) in ion-exchanged water, and the mice were fed with a commercially available feed. […] After 24 hours of the administration, the spleen was excised, and spleen cells were cultivated at the same conditions as those in the preliminary test, and the concentrations of cytokines in the culture supernatant were measured.

The test system of the next test is BALB/c mice. The experiment in a line: Thymic and splenic atrophy due to DEX in mice. The conditions noted are these: control group (commercial feed), DEX 200 μg/mouse i.p., 24 h, female BALB/c mice. The format is in vivo. On the procedure: Female BALB/c mice (8 weeks old) were divided into a group fed with a commercially available feed (control group) and a group fed with a commercially available feed mixed with a nigerooligosaccharide liquid sugar (Nigero S: content of nigerooligosaccharide: 30.8% by weight; manufactured by Takeda Food Products, Ltd.) at a concentration of 5% by weight (nigerooligosaccharide group). […] After 24 hours of the administration, the thymus and spleen of each mouse were excised, and the weights of the excised thymus and spleen were measured.

In test [3] the test system is human mononuclear cells. Description: IL-12 and IFN-γ production by mononuclear cells stimulated with heat-killed Lactobacillus plantarum L137, with DEX (ELISA). Format: cell-based. The settings on record: for IFN-γ / IL-12: DEX 10 nM, Lactobacillus plantarum L137 1.0 μg/mL, 24 h. On the procedure:
as §1
To the culture was added a cell stimulatory factor, which was heated dead body cells of Lactobacillus plantarum L137, so as to make a final concentration of […]. […] After completion of the incubation, the amounts of IL-12 and IFN-γ in the culture supernatant were measured by the ELISA.

For test [4], the system named is human mononuclear cells. Description: Suppression by nigerose of the DEX-induced decrease in growth of ConA- or PHA-stimulated human mononuclear cells (WST-1 absorbance). Format: cell-based. The settings on record: for Absorbance (at 450 nm to 630 nm): DEX 10 nM, 24 h. As for the experimental part:
After a blood sample obtained from an adult was diluted two-fold with PBS, a Ficoll-Paque Plus solution (manufactured by Amersham Corporation) was added slowly to make double layers (blood diluted two-fold with PBS Ficoll-Paque Plus solution=4:3), which were centrifuged at the conditions of 400×g, 20° C. and 40 minutes. A mononuclear cell fraction present in the middle layer was recovered, and this mononuclear cell fraction washed twice with a 10-fold volume of PBS. The obtained mononuclear cells were suspended in an RPMI 1640 culture medium (manufactured by GIBCO BRL Corporation) to obtain a suspension of peripheral blood mononuclear cells. The number of cells in the suspension of peripheral blood mononuclear cells was measured with an automatic blood cell counter (manufactured by Sysmex Co., Ltd., Type CDA-500), and the mononuclear cells were suspended in RPMI 1640 culture medium so as to make the number of cells at a concentration of 2.0×10^6 cells/mL. This suspension was inoculated at 50 μL per one well on a 96-well tissue culture plate. To the inoculated suspension was added a solution of ConA or PHA in the RPMI 1640 culture medium in 50 μL per one well so as to make a final concentration of 2.0 μg/mL or 5.0 μg/mL, respectively. […] The mononuclear cells were incubated at 37° C. for 24 hours in a 5% CO2 incubator. At 4 hours before completion of the incubation, a solution of WST-1 (manufactured by Dojindo Laboratories Inc.), dissolved in 0.4 mM 1-methoxy PMS (manufactured by Dojindo Laboratories Inc.) to make a concentration of 10 mM, was added in 10 μL per one well, and the absorbance at a measurement wavelength of 450 nm and a reference wavelength of 630 nm was measured at the time of completion of the incubation.
WST-1, when taken into living cells, is reduced by a intracellular mitochondrial dehydrogenase to produce water-soluble formazan. Because the amount of the thus-produced formazan is proportional to the number of the living cells, the measurement of the absorbance of formazan can be made as an index of the cell growth.
A general note: Formazan colour is commonly taken as a measure of viable cells.

The test system of test [5] is human mononuclear cells. The experiment in a line: Activated apoptosis of mononuclear cells (ssDNA Apoptosis ELISA kit). The format is cell-based. The conditions noted are these: for Absorbance (415 nm), degree of apoptosis: 24 h. As for the experimental part:
In a manner similar to that in Example 1, mononuclear cells were prepared from blood of an adult, and the cultivation was initiated at a concentration of 5.0×10^5 mononuclear cells/mL in a manner similar to that in Example 1. To the culture was added ConA or a hemolytic streptococcus preparation OK-432 (picibanil, manufactured by Chugai Pharmaceutical Co., Ltd.) as a cell stimulatory factor, so as to make a final concentrations of 2.0 μg/mL or 1.0 μg/mL, respectively. At this time, nigerose was added to each of the culture groups so as to make a concentration of 1.0 μg/mL and 10 μg/mL, where a nigerose-free control group was provided to each of the culture groups. The mononuclear cells were incubated at 37° C. for 24 hours in a 5% CO2 incubator. After completion of the incubation, apoptosis cells were fixed with an ssDNA Apoptosis ELISA kit (manufactured by Chemicon International, Inc.) which could specifically detect only the apoptosis cells, treated with a DNA-denaturing agent, then stained, and the absorbance (415 nm) was measured to quantify the degree of apoptosis.

Where [6] appears, read: nigerose 0 μg/mL, ConA 2.0 μg/mL.
[7] abbreviates: nigerose 0 μg/mL, PHA 5.0 μg/mL.
The mark [8] stands for this setting: nigerose 1 μg/mL, ConA 2.0 μg/mL.
Where [9] appears, read: nigerose 1 μg/mL, PHA 5.0 μg/mL.
Setting [10] is: nigerose 10 μg/mL, ConA 2.0 μg/mL.
[11] abbreviates: nigerose 10 μg/mL, PHA 5.0 μg/mL.
The mark [12] stands for this setting: nigerose 100 μg/mL, ConA 2.0 μg/mL.
The mark [13] stands for this setting: nigerose 100 μg/mL, PHA 5.0 μg/mL.

Molecules are shown by their SMILES.

In the case of `C[C@@H]1C[C@H]2[C@@H]3CCC4=CC(=O)C=C[C@]4(C)[C@@]3(F)[C@@H](O)C[C@]2(C)[C@@]1(O)C(=O)CO` [DEX, Dexamethasone], the “Amount of IFN-γ production” value in the test on human mononuclear cells [1] (setting [6]) came to 0.106 ± 0.046 ng/mL. In the test with human mononuclear cells [1] (setting [7]), the “Amount of IFN-γ production” value was found to be 0.119 ± 0.022 ng/mL. Moreover, in test [2] (LPS), the “IL-10 concentration in the culture supernatant” value is reported as 0.021 ± 0.011 ng/mL and the “TNF-α concentration in the culture supernatant” value is 0.373 ± 0.062 ng/mL. In test [2] (PHA), the “IFN-γ concentration in the culture supernatant” value was 0.059 ± 0.027 ng/mL and the “IL-4 concentration in the culture supernatant” value is reported as 2.1 ± 0.8 pg/mL. Besides, in the test with BALB/c mice, the Weight of spleen was determined as 78.3 ± 19.3 mg and the Weight of thymus stood at 28.8 ± 10.3 mg. Besides, in the test with human mononuclear cells [3] (nigerose 0 μg/mL), the IFN-γ turned out to be 1.748 ± 0.307 ng/mL. Further, the “Absorbance (at 450 nm to 630 nm)” value with human mononuclear cells [4] (setting [6]) was determined as 0.286 ± 0.004. In addition, the “Absorbance (at 450 nm to 630 nm)” value in the test on human mononuclear cells [4] (setting [7]) was determined as 0.299 ± 0.004.
In the case of `OC[C@H]1O[C@H](O[C@H]2[C@H](O)[C@@H](CO)OC(O)[C@@H]2O)[C@H](O)[C@@H](O)[C@@H]1O` (some centres unmarked) [Nigerose, nigerose], the “Amount of IFN-γ production” value in the test on human mononuclear cells [1] (setting [8]) is 0.075 ± 0.070 ng/mL; in the test on human mononuclear cells [1] (setting [9]), 0.144 ± 0.022 ng/mL; in the test on human mononuclear cells [1] (setting [10]) it was 0.136 ± 0.095 ng/mL; in the test on human mononuclear cells [1] (setting [11]) it was 0.219 ± 0.095 ng/mL; with human mononuclear cells [1] (setting [12]), 0.365 ± 0.053 ng/mL; in the test on human mononuclear cells [1] (setting [13]) it was 0.320 ± 0.038 ng/mL. Moreover, the “Absorbance (415 nm), degree of apoptosis” value in the test with human mononuclear cells [5] (nigerose 1.0 μg/mL, ConA 2.0 μg/mL) amounted to 1.631 ± 0.175; with human mononuclear cells [5] (nigerose 1.0 μg/mL, OK-432 1.0 μg/mL), 1.549 ± 0.276; in the test with human mononuclear cells [5] (nigerose 1.0 μg/mL, culture solution (no cell stimulatory factor)), 1.113 ± 0.053; in the test with human mononuclear cells [5] (setting [10]), 1.372 ± 0.165; with human mononuclear cells [5] (nigerose 10 μg/mL, OK-432 1.0 μg/mL) it was 1.767 ± 0.203; in the test on human mononuclear cells [5] (nigerose 10 μg/mL, culture solution (no cell stimulatory factor)), 1.134 ± 0.065. In the test on human mononuclear cells [5] (nigerose-added group), the “effect on the apoptosis” value is “suppressive effect”. The “decrease of IL-12 and IFN-γ due to DEX” value in the test on human mononuclear cells [3] (addition of nigerose, Tables 2 and 3) is “significantly suppressed concentration-dependently”. Besides, the values for the IFN-γ with human mononuclear cells [3] (nigerose 0.1 μg/mL), in the test on human mononuclear cells [3] (nigerose 1 μg/mL) and in the test with human mononuclear cells [3] (nigerose 10 μg/mL) were 1.895 ± 0.816 ng/mL, 1.866 ± 0.890 ng/mL and 2.677 ± 1.000 ng/mL, respectively. Besides, the IL-12 in the test on human mononuclear cells [3] (nigerose 0.1 μg/mL) turned out to be 0.093 ± 0.021 ng/mL; with human mononuclear cells [3] (nigerose 1 μg/mL), 0.130 ± 0.042 ng/mL; with human mononuclear cells [3] (nigerose 10 μg/mL) it was 0.171 ± 0.016 ng/mL. Besides, the “decrease in the growth of mononuclear cells due to DEX” value with human mononuclear cells [4] (addition of nigerose, ConA or PHA stimulation) is “significantly suppressed concentration-dependently”. In addition, the “Absorbance (at 450 nm to 630 nm)” value in the test with human mononuclear cells [4] (setting [8]) is 0.289 ± 0.004; in the test on human mononuclear cells [4] (setting [9]), 0.290 ± 0.002; in the test on human mononuclear cells [4] (setting [10]), 0.307 ± 0.003; in the test on human mononuclear cells [4] (setting [11]), 0.305 ± 0.009; in the test with human mononuclear cells [4] (setting [12]) it was 0.319 ± 0.004; with human mononuclear cells [4] (setting [13]) it was 0.319 ± 0.007.
